{"source": "paper PMC9652300", "about": "“Neolignans isolated from Saururus cernuus L. (Saururaceae) exhibit efficacy against Schistosoma mansoni” (Scientific Reports, 2022)", "key": {"S. mansoni adult worms [1]": {"system": "S. mansoni adult worms", "conditions": "cited from earlier work"}, "S. mansoni infections": {"system": "S. mansoni infections", "parameters": "method as in PMID 25412105, PMID 28126024", "conditions": "systematic reviews and meta-analyses; cited from earlier work"}, "[2]": {"assay": "Cytotoxicity MTT assay, HaCaT cells", "type": "cell-based, human", "conditions": "human, HaCaT cells (human epithelial cells); HaCaT cells, MTT, 72 h", "procedure": "(§1) HaCaT (human epithelial cells) and Vero (monkey kidney cells) were obtained from the Banco de Células do Rio de Janeiro (BCRJ, RJ, Brazil) and the American Type Culture Collection (ATCC CCL-81; Manassas, VA, USA), respectively. Cells were cultured in DMEM medium supplemented with 10% heat-inactivated fetal bovine serum and antibiotics (100 U/mL penicillin and 100 μg/mL streptomycin) at 37 °C in a humidified atmosphere containing 5% CO2. They were maintained in 25 cm^2 culture flasks (Corning, Tewksbury, MA, USA) and harvested using 0.25% trypsin in 0.2 g/L EDTA solution.\n(§2) The MTT assay was used to evaluate the cytotoxic activity as previously described[71],[72]. Briefly, cells were seeded (2 × 10^3/well in 96-well culture plates) and incubated with threo-austrobailignan-6 and verrucosin (started at 500 µM and followed a threefold dilution series) for 72 h at 37 °C and 5% CO2. MTT solution was added to each well and the absorbance was read on an Epoch Microplate Spectrophotometer (BioTek Instruments, Winooski, VT, USA) at 595 nm. The selectivity indices (SI) were calculated by dividing the 50% cytotoxic concentration (CC50) obtained on cells with 50% effective concentration (EC50) values determined on schistosomes.\n(§3) Statistical analyses were performed using Graph Pad Prism software 8.0 (San Diego, CA, USA). Data are presented as the mean ± standard deviation (SD) of at least three independent experiments, EC50 and, CC50 values were calculated using sigmoid dose–response curves. For S. mansoni egg production, significant differences were determined by one-way analysis of variance (ANOVA) and applying Tukey's test for multiple comparisons with a level of significance set at P < 0.05."}, "S. mansoni adult worms [3]": {"system": "S. mansoni adult worms", "assay": "Antischistosomal assay: viability of ex vivo adult worm pairs", "type": "cell-based", "procedure": "The life cycle of S. mansoni (BH strain) is maintained by routine passage through Biomphalaria glabrata snails and Swiss mice at Guarulhos University (UNG, Guarulhos, SP, Brazil). Rodents, three weeks-old, were purchased from Animais de Laboratório Criação e Comércio (Paulínea, SP, Brazil). Both mice and snails were kept under environmentally controlled conditions (25 °C; humidity of 50%), with free access to food and water. Cercariae of S. mansoni were obtained from infected intermediate host snails in our laboratories as described previously[63],[64].\n(§4) The antischistosomal assay was performed as previously described[65],[66]. Briefly, S. mansoni adult parasites were obtained from infected mice at day 42 post-infection (parasite ex vivo). One adult male and one adult female worms (i.e. one worm pairs) were incubated in flat bottom 24-well plates (Corning, New York, NY, USA) in the presence of threo-austrobailignan-6 and verrucosin (started at 50 µM and followed a twofold dilution series) in RPMI 1640 culture medium supplemented with 5% inactivated fetal calf serum and containing antibiotics (100 U/mL penicillin and 100 μg/mL streptomycin). The control schistosomes were assayed in a culture medium and 0.5% DMSO (representing the highest concentration of solvent). Each concentration (50, 25, 12.5, 6.25, 3.12 µM) was tested in five replicates, and the experiments were repeated three times. Parasites were kept for 72 h (37 °C, 5% CO2), and their viability was monitored microscopically at 2, 24, 48, and 72 h using both a Motic AE2000 inverted microscope (Vancouver, Canada) and a Leica EZ4E stereomicroscope (Wetzlar, Germany). The death of adult schistosomes was defined as no movement observed for at least 1 to 2 min of examination, whereas parasites with any body movement were considered viable. The percentage of viable adult schistosomes was calculated considering worms exposed to compounds vs control worms. For assessment of the reproductive fitness of S. mansoni, the number of eggs was counted daily using an inverted microscope (Motic) as previously described.\nas §3"}, "[4]": {"assay": "Cytotoxicity MTT assay, Vero cells", "type": "cell-based, African green monkey", "conditions": "African green monkey, Vero cells (monkey kidney cells); Vero cells, MTT, 72 h", "procedure": "as §1, §2, §3"}, "[5]": {"system": "Vero (monkey kidney cells)", "assay": "Cytotoxicity MTT assay, Vero cells", "type": "cell-based, African green monkey", "conditions": "CC50 Vero / EC50 S. mansoni", "procedure": "as §1, §2, §3"}, "[6]": {"system": "HaCaT (human epithelial cells)", "assay": "Cytotoxicity MTT assay, HaCaT cells", "type": "cell-based", "conditions": "CC50 HaCaT / EC50 S. mansoni", "procedure": "as §1, §2, §3"}, "[7]": {"system": "S. mansoni adult worm pairs", "assay": "Egg production (reproductive fitness) of paired adult worms", "type": "cell-based, Schistosoma mansoni", "conditions": "for total number of eggs vs control worms / oviposition: within 72 h", "procedure": "as §4, §3"}, "[8]": {"conditions": "Schistosoma mansoni, 72 h, adult worms, male and female, 72 h, read-out: EC50 (schistosomicidal activity)"}, "[9]": {"conditions": "Schistosoma mansoni, 72 h, ex vivo adult female worms, 72 h exposure, brackets = 95% confidence interval, read-out: S. mansoni EC50 Female"}, "[10]": {"conditions": "Schistosoma mansoni, 72 h, ex vivo adult male worms, 72 h exposure, brackets = 95% confidence interval, read-out: S. mansoni EC50 Male"}}, "note": "Where two headings read alike, the source gives them in different places.", "data": [{"compound": "2-oxopopulifolic acid methyl ester", "values": [{"measurement": "in vitro effective concentration", "setting": "S. mansoni adult worms [1]", "value": 50, "unit": "µM"}]}, {"compound": "C=CC(C)(O)CCC=C(C)CCC=C(C)C", "note": "(mixture of isomers) [nerolidol]", "values": [{"measurement": "in vitro effective concentration", "setting": "S. mansoni adult worms [1]", "value": 85, "unit": "µM"}]}, {"compound": "CC1=CC(=O)CC2[C@]1(C)CC[C@@H](C)[C@]2(C)CCC(C)CC(=O)O", "note": "(stereo partly drawn) [2-oxopopulifolic acid]", "values": [{"measurement": "in vitro effective concentration", "setting": "S. mansoni adult worms [1]", "value": 50, "unit": "µM"}]}, {"compound": "CC(C)CCCC(C)CCO", "note": "(stereo not drawn) [3,7-dimethylloctanol]", "values": [{"measurement": "in vitro effective concentration", "setting": "S. mansoni adult worms [1]", "value": 52, "unit": "µM"}]}, {"compound": "O=C(C1CCCCC1)N1CC(=O)N2CCc3ccccc3C2C1", "note": "(stereo not drawn) [Praziquantel, praziquantel, reference compound]", "values": [{"measurement": "cure rate", "setting": "S. mansoni infections", "value": "approximately 75%"}, {"measurement": "CC50 at 72 h", "setting": "[2]", "value": "> 500", "unit": "µM"}, {"measurement": "EC50", "setting": "S. mansoni adult worms [3]; [8]", "value": "< 0.93", "unit": "µM"}, {"measurement": "EC50", "setting": "S. mansoni adult worms [3]; [9]", "value": 0.8, "unit": "µM"}, {"measurement": "EC50", "setting": "S. mansoni adult worms [3]; [10]", "value": 0.7, "unit": "µM"}, {"measurement": "mortality of adult worm pairs", "setting": "S. mansoni adult worms [3]; praziquantel at 2 µM, monitored up to 72 h", "value": "mortality of all worms immediately"}, {"measurement": "CC50 at 72 h", "setting": "[4]", "value": "> 500", "unit": "µM"}, {"measurement": "Monkey cells SI (Selectivity Index)", "setting": "[5]", "value": "> 714"}]}, {"compound": "COc1cc(C[C@@H](C)[C@H](C)Cc2ccc3c(c2)OCO3)ccc1O", "note": "[Threo-austrobailignan-6, threo-austrobailignan-6]", "values": [{"measurement": "Human cells SI (Selectivity Index)", "setting": "[6]", "value": "> 17.8"}, {"measurement": "CC50 at 72 h", "setting": "[2]", "value": "> 500", "unit": "µM"}, {"measurement": "EC50", "setting": "S. mansoni adult worms [3]; [8]", "value": "< 30", "unit": "µM"}, {"measurement": "EC50", "setting": "S. mansoni adult worms [3]; [9]", "value": 28.1, "unit": "µM"}, {"measurement": "EC50", "setting": "S. mansoni adult worms [3]; [10]", "value": 22.9, "unit": "µM"}, {"measurement": "mortality at 25 µM", "setting": "S. mansoni adult worms [3]; Schistosoma mansoni, 72 h, read-out: mortality of male worms", "value": 100, "unit": "%"}, {"measurement": "pairing of male and female parasites", "setting": "[7]; 25 μM", "value": "remained coupled"}, {"measurement": "total number of eggs vs control worms", "setting": "[7]; 25 μM", "value": "significantly reduced"}, {"measurement": "pairing of male and female parasites", "setting": "[7]; 50 μM", "value": "separated"}, {"measurement": "oviposition", "setting": "[7]; 50 μM", "value": "complete lack of oviposition"}, {"measurement": "CC50 at 72 h", "setting": "[4]", "value": "> 500", "unit": "µM"}, {"measurement": "Monkey cells SI (Selectivity Index)", "setting": "[5]", "value": "> 17.8"}]}, {"compound": "COc1cc([C@H]2O[C@@H](c3ccc(O)c(OC)c3)[C@@H](C)[C@@H]2C)ccc1O", "note": "[Verrucosin, verrucosin]", "values": [{"measurement": "Human cells SI (Selectivity Index)", "setting": "[6]", "value": "> 26.8"}, {"measurement": "CC50 at 72 h", "setting": "[2]", "value": "> 500", "unit": "µM"}, {"measurement": "time to death of all female worms", "setting": "S. mansoni adult worms [3]; 25 μM", "value": "≤ 72", "unit": "h"}, {"measurement": "mortality at 25 µM", "setting": "S. mansoni adult worms [3]; Schistosoma mansoni, 48 h, read-out: mortality of male parasites", "value": 100, "unit": "%"}, {"measurement": "EC50", "setting": "S. mansoni adult worms [3]; [9]", "value": 18.7, "unit": "µM"}, {"measurement": "EC50", "setting": "S. mansoni adult worms [3]; [10]", "value": 12.6, "unit": "µM"}, {"measurement": "EC50", "setting": "S. mansoni adult worms [3]; adult worms, male and female, 72 h, read-out: EC50 (schistosomicidal activity)", "value": "< 30", "unit": "µM"}, {"measurement": "oviposition", "setting": "[7]; 12.5 μM, P < 0.01", "value": "significant reduction"}, {"measurement": "pairing of male and female parasites", "setting": "[7]; 25 μM", "value": "remained coupled"}, {"measurement": "total number of eggs vs control worms", "setting": "[7]; 25 μM", "value": "significantly reduced"}, {"measurement": "pairing of male and female parasites", "setting": "[7]; 50 μM", "value": "separated"}, {"measurement": "oviposition", "setting": "[7]; 50 μM", "value": "complete lack of oviposition"}, {"measurement": "CC50 at 72 h", "setting": "[4]", "value": "> 500", "unit": "µM"}, {"measurement": "Monkey cells SI (Selectivity Index)", "setting": "[5]", "value": "> 26.8"}]}, {"compound": "COc1cc(O)cc(O)c1C(=O)/C=C/c1ccccc1", "note": "[cardamonin]", "values": [{"measurement": "in vitro effective concentration", "setting": "S. mansoni adult worms [1]", "value": 25, "unit": "µM"}]}, {"compound": "Cc1ccc(C(C)C)cc1O", "note": "[carvacrol]", "values": [{"measurement": "in vitro effective concentration", "setting": "S. mansoni adult worms [1]", "value": 56.8, "unit": "µM"}]}, {"compound": "CC(=O)Oc1cc(C(C)C)ccc1C", "note": "[carvacryl acetate]", "values": [{"measurement": "in vitro effective concentration", "setting": "S. mansoni adult worms [1]", "value": 42.16, "unit": "µM"}]}, {"compound": "C=C1C(=O)O[C@@H]2/C=C(\\CO)CC/C=C(\\C)C[C@H](OC(=O)C(=C)[C@@H](O)CO)[C@@H]12", "note": "[cnicin]", "values": [{"measurement": "in vitro effective concentration", "setting": "S. mansoni adult worms [1]", "value": 50, "unit": "µM"}]}, {"compound": "C=C1C[C@@]23CC[C@H]4[C@@](C)(CCC[C@@]4(C)C(=O)O)[C@@H]2CC[C@@H]1C3", "note": "[ent-kaur-16-en-19-oic acid]", "values": [{"measurement": "in vitro effective concentration", "setting": "S. mansoni adult worms [1]", "value": 26.1, "unit": "µM"}]}, {"compound": "C/C=C/c1cc(OC)c2c(c1)[C@H](C)[C@@H](c1ccc(O)c(OC)c1)O2", "note": "[licarin A]", "values": [{"measurement": "in vitro effective concentration", "setting": "S. mansoni adult worms [1]", "value": 30, "unit": "µM"}]}, {"compound": "C=CC(C)(C)c1cc(/C=C/C(=O)c2ccc(O)cc2)c(OC)cc1O", "note": "[licochalcone A]", "values": [{"measurement": "in vitro effective concentration", "setting": "S. mansoni adult worms [1]", "value": 50, "unit": "µM"}]}]}
